Assay [1] can be described thus: Example 4: 8 week weight loss experiment in obese mice, compounds via drinking water. The assay is classed as in vivo, Male C57BL6/J mice. The conditions noted are these: obese mice on high-fat diet, 8 weeks, most compounds 0.5 and 2.5 mg/kg/day, hexestrol 0.125 to 2 mg/kg/day. As for the experimental part: An 8 week experiment was performed to investigate the ability of various estrogen modulating compounds to induce weight loss in obese mice. Male C57BL6/J mice were placed on a high fat diet for approximately 12 weeks prior to the study and initiated in the experiment at 18 weeks of age. Obese mice were allocated into cohorts of 6 mice per compound and housed at a density of 3 per cage. Over 8 weeks, mice were placed on a high-fat diet ad libitum and compounds were provided via drinking water. Most compounds were assigned to two treatment groups with doses of 0.5 mg/kg/day and 2.5 mg/kg/day. Hexestrol was assigned to 5 treatment groups ranging between 0.125 mg/kg/day and 2 mg/kg/day. Weight measurements of each mouse were taken once per week over 8 weeks.

Assay [2] in a line: Example 1 Phase 1: prevention of weight gain in lean mice placed on high fat diet, drug via drinking water for 8 weeks. It is filed as in vivo, Male C57BL6/J mice. As to conditions: for lean mouse body weight accumulation over the 8 week period: drug in drinking water, vs control mice. How it is done: (§1) Male C57BL6/J mice were tested as follows. The animal room was lighted entirely with artificial fluorescent lighting on controlled 12 hr light/dark cycle (6 a.m. to 6 p.m. light). The normal temperature and relative humidity ranges in the animal rooms were maintained at 22±4° C. and 50±15%, respectively. The animal room was set for 15 air exchanges per hour. Filtered tap water acidified to a pH of 2.5 to 3.0 was provided ad libitum. High fat diet was provided ad libitum.
After a 1 week acclimation, the mice were grouped into cohorts of 6 mice each. 6 DIO (diet induced obesity) and 6 lean C57BL6/J mice were used as naïve controls. Each drug was administered via drinking water for 8 weeks. The drug containing drinking water solutions were made fresh weekly. Water intake, food intake, and body weights were recorded weekly.
This experiment was run in two phases, Phase 1 (prevention of weight gain in lean mice) and Phase 2 (weight loss in obese mice). In the phase 1 experiment, the mice were placed on high fat diet at the same time administration of the drug was initiated. In the phase 2 experiment, drug treatment was initiated on 18 week old mice, which were previously on a high fat diet for approximately 12 weeks. In addition to the measurements noted above, a single DEXA Scan analysis was ran on the mice in Phase 2. After treatment, mice underwent body tissue composition analysis by Echo MRI (NMR) to measure their fat and lean mass content.
Body weight change was calculated for each mouse by subtracting the body weight on the first day of dosing (baseline) from the body weight on the last day of dosing (final) and calculating the percent change from baseline body weight: [=100*(Final Weight−BaselineWeight)/BaselineWeight]. Average percent body weight change was then calculated for each treatment group. Error bars represent standard error of the mean (SEM).
Food intake per mouse per day was calculated based on food intake per cage. Mean food intake for each treatment group was then calculated weighted by the number of mice per cage. Similarly, water intake per mouse per day was calculated based on water intake per cage. Mean water intake for each treatment group was then calculated weighted by the number of mice per cage.
In both phase 1 and 2 studies, the drugs were administered through the water given to the mice. The concentration of each drug in the water is provided below:
Diethylstilbestrol: 2 mg/500 mL (1 mg/kg/day)
Raloxifene: 20 mg/500 mL (10 mg/kg/day)
Tamoxifen: 4 mg/500 mL (2 mg/kg/day)
Clomiphene: 10 mg/500 mL (5 mg/kg/day)
Hexestrol: 4 mg/500 mL (2 mg/kg/day)
A mouse typically drinks about 5 mL of water a day.
Phase 1 (Prevention of Weight Gain in Lean Mice)

Assay [3] is described as follows: Example 1 Phase 2: weight loss in obese mice, drug via drinking water for 8 weeks. The assay is classed as in vivo, Male C57BL6/J mice. How it is done:
as §1
After a 1 week acclimation, the mice were grouped into cohorts of 6 mice each. 6 DIO (diet induced obesity) and 6 lean C57BL6/J mice were used as naïve controls. Each drug was administered via drinking water for 8 weeks. […] Water intake, food intake, and body weights were recorded weekly. […]
Body weight change was calculated for each mouse by subtracting the body weight on the first day of dosing (baseline) from the body weight on the last day of dosing (final) and calculating the percent change from baseline body weight: [=100*(Final Weight−BaselineWeight)/BaselineWeight]. Average percent body weight change was then calculated for each treatment group. […]
Food intake per mouse per day was calculated based on food intake per cage. Mean food intake for each treatment group was then calculated weighted by the number of mice per cage. Similarly, water intake per mouse per day was calculated based on water intake per cage. […]

A short description of assay [4]: Example 3: 8 week weight loss experiment in obese mice, compound in drinking water or feed. It is filed as in vivo, male C57BL6/J mice. As to conditions: for body weight in comparison to controls / body weight reduction from controls: 8 weeks; for fat tissue mass (NMR body composition analysis): after 8 weeks. How it is done: (§2) An 8 week long weight loss experiment was performed on obese 18 week old male C57BL6/J mice having been on a high fat diet for approximately 12 weeks. The estrogen modulating compound treatment groups (hexestrol, clomiphene, raloxifene, and tamoxifen) were either provided in drinking water or feed. Obese mice were allocated into cohorts of 6 mice per compound per treatment type and housed at a density of 1 mouse per cage. Water treatment group mice were placed on a high fat diet ad libitum with compound provided via drinking water. Each feed treatment group received a specially formulated high fat diet containing their corresponding compound ad libitum and normal drinking water. Weight measurements of each mouse were taken twice per week over 8 weeks. Food intake per mouse per day was also recorded.
(§3) At the end of 8 weeks mice underwent a body tissue composition analysis by Echo MRI (NMR), an intraperitoneal glucose tolerance test (IPGTT), and an oral glucose tolerance test (OGTT). For IPGTT, each mouse received an intraperitoneal glucose solution injection of 1 g glucose/kg body weight. Serum glucose concentration was measured pre-injection, and 30, 60, and 90 minutes post-injection. For OGTT, each mouse received an oral glucose solution dose of 1 g glucose/kg body weight. Serum glucose was measured before the oral dose, and 15, 30, 90, and 120 minutes after oral dose.

A short description of assay [5]: Example 3: oral glucose tolerance test (OGTT) in obese mice after 8 weeks of treatment. The conditions noted are these: hexestrol water treated mice, 1 mg/kg/day, 1 g glucose/kg oral. The assay is classed as in vivo, male C57BL6/J mice. As for the experimental part:
as §2, §3

Assay [6] can be described thus: Example 3: intraperitoneal glucose tolerance test (IPGTT) in obese mice after 8 weeks of treatment. The assay is classed as in vivo, male C57BL6/J mice. The conditions noted are these: hexestrol water treated mice, 1 mg/kg/day. As for the experimental part: as §2, §3

The structures appear in SMILES notation. Bounds are passed on as bounds.

Experimental findings from patent US20140378424A1, “ESTROGEN RECEPTOR MODULATORS FOR REDUCING BODY WEIGHT” (RosScreening, Inc., priority 2011, published 2014) are described below.

Take `C[C@]12CC[C@@H]3c4ccc(O)cc4CC[C@H]3[C@@H]1CC[C@@H]2O` [17β-estradiol]: in assay [1], the “body weight in comparison to the control group” value is “significant reduction”.

Regarding `C/C=C(/C(=C/C)c1ccc(O)cc1)c1ccc(O)cc1` [Dienestrol, dienestrol], the “body weight in comparison to the control group” value in assay [1] is reported as “significant reduction”.

As to `CCN(CC)CCOc1ccc(C(=C(Cl)c2ccccc2)c2ccccc2)cc1` [clomiphene], the “lean mouse body weight accumulation over the 8 week period” value in assay [2] was “significant decrease”. Moreover, in assay [3] (8 weeks, clomiphene 5 mg/kg/day in drinking water), the “change in body weight” value is “significant”. Also, the “fat tissue mass (NMR body composition analysis)” value (from here on “fat tissue mass”) in assay [3] (after 8 weeks, in comparison to control mice) is recorded as “reduction in fat tissue mass”; in assay [4] (feed treated mice) it was “significant decrease”. Further, the “body weight in comparison to controls” value in assay [4] (feed treatment group) and in assay [4] (water treatment group) was “significant reduction” in each case.

As for `CC/C(=C(/CC)c1ccc(O)cc1)c1ccc(O)cc1` [diethylstilbestrol], the “lean mouse body weight accumulation over the 8 week period” value in assay [2] is listed as “significant decrease”.

In the case of `CC[C@H](c1ccc(O)cc1)[C@@H](CC)c1ccc(O)cc1` [hexestrol], the “increase of serum glucose concentration upon an oral dose of glucose (OGTT)” value in assay [5] (in comparison to controls) is “increases to a lesser amount”. For the same compound, the “time at which serum glucose returns back to baseline (OGTT)” value in assay [5] (post-dose) is at most 90 min. Also, the “reduction of body weight accumulation from control mice” value in assay [2] (8 weeks, hexestrol 2 mg/kg/day in drinking water) is listed as 35.0±11.3%. The “lean mouse body weight accumulation over the 8 week period” value in assay [2] is recorded as “significant decrease”. For the same compound, the “body weight in comparison to the control group” value in assay [1] is listed as “significant reduction”. Also, the “body weight in comparison to controls” value in assay [4] (feed treatment group) and in assay [4] (water treatment group) was “significant reduction” throughout. Further, the “body weight reduction from controls” value in assay [4] (feed treatment group) is given as 31.7±4.5%; in assay [4] (water treatment group), 30.8±9.7%. Besides, the “fat tissue mass” value in assay [4] (feed treated mice) and in assay [4] (water treated mice) was “significant decrease” in each case. Also, the “serum glucose concentration upon injection of the glucose solution (IPGTT)” value in assay [6] (1 g glucose/kg intraperitoneal, up to 90 minutes post-injection) is recorded as “remains static”. Further, the “starting serum glucose concentration (IPGTT)” value in assay [6] (pre-injection, in comparison to controls) was “significantly lower”.

In the case of `O=C(c1ccc(OCCN2CCCCC2)cc1)c1c(-c2ccc(O)cc2)sc2cc(O)ccc12` [raloxifene], in assay [2], the “lean mouse body weight accumulation over the 8 week period” value was “significant decrease”. The “body weight in comparison to controls” value in assay [4] (feed treatment group) and in assay [4] (water treatment group) was “significant reduction” in each case.

As for `CC/C(=C(\c1ccccc1)c1ccc(OCCN(C)C)cc1)c1ccccc1` [tamoxifen], the “lean mouse body weight accumulation over the 8 week period” value in assay [2] is reported as “significant decrease”. In addition, the “body weight in comparison to controls” value in assay [4] (feed treatment group) and in assay [4] (water treatment group) was “significant reduction” in each case. In addition, the “fat tissue mass” value in assay [4] (feed treated mice) and in assay [4] (water treated mice) was “significant decrease” in each case.

Take `CN(C)CCOc1ccc(/C(=C(/CCCl)c2ccccc2)c2ccccc2)cc1` [toremifene]: the “body weight in comparison to the control group” value in assay [1] is “significant reduction”.
